Test system: normal human lung fibroblasts
Assay: Ribosomal profiling: translational efficiency in TGFβ-treated fibroblasts
Type: cell-based
Procedure: Ribosomal profiling allows for measurement of changes in transcription and translation on a genome-wide basis accompanying TGFβ-dependent transformation of fibroblasts to myofibroblasts. Ribosomal profiles of the TGFβ-treated fibroblasts from Example 1 (about 6×10^6 cells/10 cm plate) were prepared and analyzed for changes in translational efficiencies with respect to potential disease-associated cellular changes accompanying this TGFβ-induced transformation.
Briefly, cells were washed with cold PBS supplemented with cycloheximide and lysed with 1× mammalian cell lysis buffer for 10 minutes on ice. Lysates were clarified by centrifugation for 10 minutes at 14,000 rpm and supernatants were collected. Cell lysates were processed to generate ribosomal protected fragments and total mRNA according to the instructions included with the ARTseq Ribosome Profiling Kit (Illumina, San Diego, Calif.). Sequencing of total RNA (RNA) and of ribosome-protected fragments of RNA (RPF) was carried out using RNA-Seq methodology according to the manufacturer's instructions (Illumina). To analyze the ribosomal profiles, RNA-Seq reads were processed with tools from the FASTX-Toolkit (fastq_quality_trimmer, fastx_clipper and fastx_trimmer). Unprocessed and processed reads were evaluated for a variety of quality measures using FastQC, and processed reads were mapped to the human genome using TopHat (see, e.g., Trapnell et al., Bioinformatics 25:1105, 2009). Gene-by-gene assessment of the number of fragments strictly and uniquely mapping to the coding region of each gene was conducted using HTSeq-count, a component of the HTSeq package. […] Genes with low counts in either RPF or RNA were excluded from differential analyses. Pathway and network analyses of differential data were conducted using Ingenuity Pathway Analysis (IPA).

TGFβ
change in translational profile of PPARG caused by TGFβ (ENSG00000132170, Control vs. TGFβ): A (A = <−2.5)
Log2 TE KDM6B (ENSG00000132510, 5 replicates): 1.603
change in translational profile of KDM6B caused by TGFβ (ENSG00000132510, Control vs. TGFβ): E (E = <1.5 to 2.5)
Log2 TE RARRES3 (ENSG00000133321, 5 replicates): −1.995
change in translational profile of RARRES3 caused by TGFβ (ENSG00000133321, Control vs. TGFβ): B (B = <−1.5 to −2.5)
Log2 TE TMTC1 (ENSG00000133687, 5 replicates): −1.907
Log2 TE RPS15A (ENSG00000134419, 5 replicates): 2.195
Log2 TE SOX5 (ENSG00000134532, 5 replicates): −1.667
change in translational profile of BIVM caused by TGFβ (ENSG00000134897, Control vs. TGFβ): B (B = <−1.5 to −2.5)
Log2 TE ATP5G2 (ENSG00000135390, 5 replicates): 1.381
change in translational profile of ATP5G2 caused by TGFβ (ENSG00000135390, Control vs. TGFβ): E (E = <1.5 to 2.5)
Log2 TE KRT7 (ENSG00000135480, 5 replicates): 2
change in translational profile of KRT7 caused by TGFβ (ENSG00000135480, Control vs. TGFβ): E (E = <1.5 to 2.5)
Log2 TE HNRNPA1 (ENSG00000135486, 5 replicates): 1.086
change in translational profile of HNRNPA1 caused by TGFβ (ENSG00000135486, Control vs. TGFβ): D (D = <1.0 to 1.5)
Log2 TE PCNXL2 (ENSG00000135749, 5 replicates): −1.261
Log2 TE PLXNC1 (ENSG00000136040, 5 replicates): −1.0996
Log2 TE IL6 (ENSG00000136244, 5 replicates): 1.369
change in translational profile of IL6 caused by TGFβ (ENSG00000136244, Control vs. TGFβ): E (E = <1.5 to 2.5)
Log2 TE RPL35 (ENSG00000136942, 5 replicates): 1.28
change in translational profile of RPL35 caused by TGFβ (ENSG00000136942, Control vs. TGFβ): E (E = <1.5 to 2.5)
change in translational profile of NOV caused by TGFβ (ENSG00000136999, Control vs. TGFβ): C (C = <−1.0 to −1.5)
Log2 TE IL33 (ENSG00000137033, 5 replicates): −2.488
Log2 TE RPS6 (ENSG00000137154, 5 replicates): 1.598
Log2 TE IER3 (ENSG00000137331, 5 replicates): 1.702
change in translational profile of IER3 caused by TGFβ (ENSG00000137331, Control vs. TGFβ): E (E = <1.5 to 2.5)
Log2 TE DDX60 (ENSG00000137628, 5 replicates): −1.211
change in translational profile of DDX60 caused by TGFβ (ENSG00000137628, Control vs. TGFβ): C (C = <−1.0 to −1.5)
Log2 TE RPLP1 (ENSG00000137818, 5 replicates): 1.461
change in translational profile of RPLP1 caused by TGFβ (ENSG00000137818, Control vs. TGFβ): E (E = <1.5 to 2.5)
Log2 TE PAQR5 (ENSG00000137819, 5 replicates): −1.445
change in translational profile of PAQR5 caused by TGFβ (ENSG00000137819, Control vs. TGFβ): B (B = <−1.5 to −2.5)
Log2 TE STAMBPL1 (ENSG00000138134, 5 replicates): −1.139
Log2 TE KIF20B (ENSG00000138182, 5 replicates): −1.281
Log2 TE RPS24 (ENSG00000138326, 5 replicates): 1.444
Log2 TE TET1 (ENSG00000138336, 5 replicates): 1.853
Log2 TE AOX1 (ENSG00000138356, 5 replicates): −1.143
change in translational profile of AOX1 caused by TGFβ (ENSG00000138356, Control vs. TGFβ): B (B = <−1.5 to −2.5)
Log2 TE NAB1 (ENSG00000138386, 5 replicates): −1.01
Log2 TE SLC40A1 (ENSG00000138449, 5 replicates): 1.114
Log2 TE FGF5 (ENSG00000138675, 5 replicates): −1.163
change in translational profile of FGF5 caused by TGFβ (ENSG00000138675, Control vs. TGFβ): B (B = <−1.5 to −2.5)
Log2 TE PDE5A (ENSG00000138735, 5 replicates): −1.594
change in translational profile of PDE5A caused by TGFβ (ENSG00000138735, Control vs. TGFβ): B (B = <−1.5 to −2.5)
Log2 TE FGD4 (ENSG00000139132, 5 replicates): −1.142
Log2 TE SLC38A4 (ENSG00000139209, 5 replicates): −1.142
Log2 TE GAS2L3 (ENSG00000139354, 5 replicates): −2.342
change in translational profile of GAS2L3 caused by TGFβ (ENSG00000139354, Control vs. TGFβ): A (A = <−2.5)
Log2 TE TDG (ENSG00000139372, 5 replicates): 1.025
Log2 TE DIAPH3 (ENSG00000139734, 5 replicates): 1.659
change in translational profile of DIAPH3 caused by TGFβ (ENSG00000139734, Control vs. TGFβ): E (E = <1.5 to 2.5)
Log2 TE RPS2 (ENSG00000140988, 5 replicates): 1.607
change in translational profile of MYO19 caused by TGFβ (ENSG00000141140, Control vs. TGFβ): D (D = <1.0 to 1.5)
Log2 TE CACNA1A (ENSG00000141837, 5 replicates): −1.055
Log2 TE RPS11 (ENSG00000142534, 5 replicates): 1.314
Log2 TE RPL13A (ENSG00000142541, 5 replicates): 1.797
change in translational profile of RPL13A caused by TGFβ (ENSG00000142541, Control vs. TGFβ): E (E = <1.5 to 2.5)
Log2 TE RPL11 (ENSG00000142676, 5 replicates): 1.396
change in translational profile of RPL11 caused by TGFβ (ENSG00000142676, Control vs. TGFβ): E (E = <1.5 to 2.5)

From patent publication US9993494B2, “Compositions and methods for treating fibrotic disease” (eFFECTOR Therapeutics, Inc., priority 2014, dated 2018)
